Results published in the supplement of paper PMC11451515.

Columns and labels:
Details in all cases: 48 h
NOMO1 [1] = test: AUC of viability dose-response curve (% viability x log10 dose units); higher = less sensitive
Outline: (§1)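 Leukemia cells adapted to each medium were seeded in 1536-well plates (500 or 1000 cells/well). They were dosed with library compounds in DMSO at 11 threefold doses, 47 μM to 0.79 nM, for 48 h at 37°C. CellTiter-Glo One luminescence was normalised per plate to DMSO and cell-free wells. Area under the curve was integrated by trapezoidal rule over log10 doses on a four-parameter log-logistic fit; curves exceeding full viability were scaled and curves failing quality control removed.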

P12-Ichikawa [2] = test: as above
Outline: as §1

SEM cells [3] = test: as above
Outline: as §1

NOMO1 [4] = test: cell viability relative to DMSO control; higher = less cytotoxic
Outline: (§2)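 NOMO1, SEM and P12-Ichikawa leukemia cells spent at least four passages adapting to each medium before use. They were seeded at 500 cells/well (NOMO1, SEM) or 1000 cells/well (P12-Ichikawa) in 5 μl in 1536-well plates and pin-dosed with library compounds in DMSO at 11 threefold steps from 47 μM down to 0.79 nM. After 48 h at 37°C, CellTiter-Glo One luminescence was read. Viability is reported as a percentage of the DMSO wells on each plate, with cell-free wells as background.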

P12-Ichikawa [5] = test: as above
Outline: as §2

SEM cells [6] = test: as above
Outline: as §2

COc1cc(C(=O)N2CCC(N3CCN(C)CC3)CC2)ccc1Nc1ncc2c(n1)N(C)c1ccccc1C(=O)N2C
AUC of viability dose-response curve
Details | NOMO1 [1] | P12-Ichikawa [2] | SEM cells [3]
HPLM + 10% dialyzed FBS | 419 | 428 | 376
RPMI 5 mM glucose + 10% FBS | 435 | 435 | 374
RPMI 5 mM glucose + 10% dialyzed FBS | 412 | 433 | 363

C[N]1C2=C(SC(=C2)[S+](C)[O-])C\3=C1C(=O)N(CC4=CC(=CC=C4)N)\N=C3 (stereo not drawn)
AUC of viability dose-response curve
Details | HPLM + 10% dialyzed FBS | RPMI 5 mM glucose + 10% FBS | RPMI 5 mM glucose + 10% dialyzed FBS
P12-Ichikawa [2] | 414 | 404 | 392
SEM cells [3] | 426 | 426 | 403

CCN(CC)CCCCNc1nc2cc(Cl)c(Cl)cc2nc1-c1ccc(-c2cccs2)s1
cell viability [%]
Details | NOMO1 [4] | P12-Ichikawa [5] | SEM cells [6]
HPLM + 10% dialyzed FBS, 0.000781 µM | 101 | 94.2 | 83.7
HPLM + 10% dialyzed FBS, 0.00234 µM | 124 | 114 | 110
HPLM + 10% dialyzed FBS, 0.00702 µM | 123 | 75.6 | 27.8
HPLM + 10% dialyzed FBS, 0.0211 µM | 128 | 114 | 121
HPLM + 10% dialyzed FBS, 0.0632 µM | 111 | 109 | 110
HPLM + 10% dialyzed FBS, 0.19 µM | 137 | 134 | 102
HPLM + 10% dialyzed FBS, 0.569 µM | 137 | 118 | 115
HPLM + 10% dialyzed FBS, 1.71 µM | 121 | 121 | 114
HPLM + 10% dialyzed FBS, 5.12 µM | 138 | 115 | 107
HPLM + 10% dialyzed FBS, 15.4 µM | 98.4 | 123 | 124
HPLM + 10% dialyzed FBS, 46.1 µM | 3.87 | 59.9 | 8.47
RPMI 5 mM glucose + 10% FBS, 0.000781 µM | 97 | 99.9 | 93.7
RPMI 5 mM glucose + 10% FBS, 0.00234 µM | 103 | 119 | 94.9
RPMI 5 mM glucose + 10% FBS, 0.00702 µM | 111 | 64.8 | 8.03
RPMI 5 mM glucose + 10% FBS, 0.0211 µM | 115 | 123 | 101
RPMI 5 mM glucose + 10% FBS, 0.0632 µM | 123 | 120 | 96.8
RPMI 5 mM glucose + 10% FBS, 0.19 µM | 119 | 125 | 102
RPMI 5 mM glucose + 10% FBS, 0.569 µM | 123 | 134 | 114
RPMI 5 mM glucose + 10% FBS, 1.71 µM | 102 | 125 | 98.9
RPMI 5 mM glucose + 10% FBS, 5.12 µM | 117 | 123 | 107
RPMI 5 mM glucose + 10% FBS, 15.4 µM | 113 | 114 | 93.9
RPMI 5 mM glucose + 10% FBS, 46.1 µM | 5.9 | 5.94 | 5.71
RPMI 5 mM glucose + 10% dialyzed FBS, 0.000781 µM | 98.3 | 107 | 106
RPMI 5 mM glucose + 10% dialyzed FBS, 0.00234 µM | 112 | 116 | 121
RPMI 5 mM glucose + 10% dialyzed FBS, 0.00702 µM | 108 | 78 | 26.4
RPMI 5 mM glucose + 10% dialyzed FBS, 0.0211 µM | 112 | 118 | 130
RPMI 5 mM glucose + 10% dialyzed FBS, 0.0632 µM | 110 | 120 | 118
RPMI 5 mM glucose + 10% dialyzed FBS, 0.19 µM | 119 | 129 | 126
RPMI 5 mM glucose + 10% dialyzed FBS, 0.569 µM | 114 | 123 | 116
RPMI 5 mM glucose + 10% dialyzed FBS, 1.71 µM | 108 | 127 | 116
RPMI 5 mM glucose + 10% dialyzed FBS, 5.12 µM | 112 | 121 | 126
RPMI 5 mM glucose + 10% dialyzed FBS, 15.4 µM | 108 | 108 | 131
RPMI 5 mM glucose + 10% dialyzed FBS, 46.1 µM | 5.42 | 6.07 | 8.47

NOMO1 [1]
Details | AUC of viability dose-response curve
HPLM + 10% dialyzed FBS | 444
RPMI 5 mM glucose + 10% FBS | 454
RPMI 5 mM glucose + 10% dialyzed FBS | 453

CN(C)NC(=O)CCC(=O)O
AUC of viability dose-response curve
Details | NOMO1 [1] | P12-Ichikawa [2] | SEM cells [3]
HPLM + 10% dialyzed FBS | 464 | 464 | 468
RPMI 5 mM glucose + 10% FBS | 467 | 464 | 464
RPMI 5 mM glucose + 10% dialyzed FBS | 471 | 466 | 474

CCOC(=O)[C@H](CCc1ccccc1)N[C@H]1CCc2ccccc2N(CC(=O)O)C1=O
AUC of viability dose-response curve
Details | NOMO1 [1] | P12-Ichikawa [2] | SEM cells [3]
HPLM + 10% dialyzed FBS | 429 | 463 | 458
RPMI 5 mM glucose + 10% FBS | 450 | 458 | 454
RPMI 5 mM glucose + 10% dialyzed FBS | 448 | 457 | 459

Cc1cc(C[S+](=O)([O-])c2ccccc2)cc(OCc2ccc(CN3CCC[C@@H]3CO)cc2)c1
AUC of viability dose-response curve
Details | NOMO1 [1] | P12-Ichikawa [2] | SEM cells [3]
HPLM + 10% dialyzed FBS | 298 | 305 | 291
RPMI 5 mM glucose + 10% FBS | 321 | 315 | 268
RPMI 5 mM glucose + 10% dialyzed FBS | 323 | 321 | 285

C=CCNC1=C2C[C@@H](C)C[C@H](OC)[C@H](O)[C@@H](C)/C=C(\C)[C@H](OC(N)=O)[C@@H](OC)/C=C\C=C(/C)C(=O)NC(=CC1=O)C2=O
AUC of viability dose-response curve
Details | NOMO1 [1] | P12-Ichikawa [2] | SEM cells [3]
HPLM + 10% dialyzed FBS | 390 | 403 | 310
RPMI 5 mM glucose + 10% FBS | 389 | 380 | 285
RPMI 5 mM glucose + 10% dialyzed FBS | 385 | 384 | 291
